Data from US12390451B2, “Small molecule inhibitor of the JAK family of kinases” (Janssen Pharmaceutica NV, priority 2021, dated 2025).
Read-outs that look alike come from different tables or passages of the source.

Legend:
[1] = molecular target: T1, JAK1/Tyk2 (Homo sapiens, UniProt P23458+P29597); assay: IFNα-induced pSTAT-3 in human whole blood; assay type: cell-based; conditions: mean
T1 construct: endogenous in cells; host or cells: human whole blood
Procedure: (§1) Compound of Formula I presents low levels of systemic exposure after oral administration. To understand the relationship between systemic exposure and target engagement in human studies, the inhibition of cytokine-induced pSTAT-3 in human whole blood was measured with such compound. In human whole blood, compound of Formula I in a concentration-dependent manner inhibited the JAK1, JAK2, JAK3, and Tyk2 homo- and heterodimers downstream of IFNα (JAK1/Tyk2), thrombopoietin (TPO) (JAK2/JAK2), and IL-21 (JAK1/JAK3) signaling.

[2] = molecular target: T2, JAK1/JAK3 (Homo sapiens, UniProt P23458+P52333); assay: IL-21-induced pSTAT-3 in human whole blood; assay type: cell-based; conditions: mean
T2 construct: endogenous in cells; host or cells: human whole blood
Procedure: as §1

[3] = molecular target: T3, JAK1/3 (Mus musculus, UniProt P52332+Q62137); assay: IL-21-induced pSTAT-3 in murine whole blood; assay type: cell-based
T3 construct: endogenous in cells; host or cells: murine whole blood
Procedure: Mouse whole blood IC50 values were also generated to build an understanding of the relationship between systemic exposures and target engagement in murine models. In murine whole blood, the in vitro activity of compound of Formula I in the inhibition of IFNα-(JAK1/Tyk2), IL-21-(JAK1/3), and IL-12-(JAK2/Tyk2) induced pSTAT responses in murine whole blood was measured. […] No reliable IC50 could be reported for inhibition of IL-12 induced pSTAT-4 in murine whole blood.

[4] = test system: IL-12/IL-18-induced pSTAT-3 in the colon; assay: IL-12/IL-18-induced colonic pSTAT-3 response in mice after oral dosing; assay type: in vivo, C57BL/6 mice; conditions: Mus musculus, read-out: Percent Inhibition of colonic pSTAT-3
Text: To understand the potential of local, enteric-selective JAK inhibitors to inhibit STAT signaling in colon tissue, two pharmacokinetic/pharmacodynamic (PK/PD) studies were developed. The first involved the combined intraperitoneal administration of IL-12 and IL-18 in mice which induces a systemic inflammatory response resulting in activation of the JAK/STAT pathway in colonic tissue which can be monitored by robust phosphorylation of STAT3 three hours after challenge. The second PK/PD model involves the ex vivo stimulation of mouse colon tissue with a cocktail of cytokines (IL-22, IL-6, and IFNα), measuring the inhibition of STAT3 phosphorylation after oral dosing of compound of Formula I.
The combined intraperitoneal administration of IL-12 and IL-18 induces colonic inflammation in mice (Chikano S, et al. Gut 47(6),779-786 (2000) “IL-18 and IL-12 induce intestinal inflammation and fatty liver in mice in an IFN-gamma dependent manner”; Nold-Petry C, et al. Front Immunol. 8, 1531(2017) “Gp96 Antagonist Protects in Murine-Intestinal-Inflammation”). An inflammatory response in colonic tissue can be monitored by robust phosphorylation of STAT3 three hours after challenge with IL 12/IL-18. In this non-GLP study, the effect of the orally administered compound of Formula I was evaluated on STAT3 responses in mouse colonic tissue induced by systemic dosing of both IL-12 and IL 18.
(§2) C57BL/6 mice (6 to 8 weeks old) were randomized by weight and assigned to various treatment groups for each of two studies. Mice were challenged intraperitoneally with a combination of IL-12 (250 ng) and IL-18 (1 μg). To examine the effect of compound of Formula I on IL-12/IL-18-induced pSTAT-3 response, groups of mice were orally dosed with compound of Formula I 1 hour prior to IL-12/IL-18 challenge. Three hours after IL-12/IL-18 challenge, mice were euthanized with CO2 asphyxiation, blood was collected via cardiocentesis for PK analysis, and colon tissues were collected for measuring pSTAT-3 response and drug levels. Mice dosed orally with 20% 2-hydroxypropyl-β-cyclodextrin (HP-β-CD) were used as vehicle controls. Two independent studies (S-1 and S-2) were conducted to examine the effect of compound of Formula I on IL-12/IL-18-induced colonic pSTAT-3 response in mice. […] Serum levels were measured at 30 minutes and 4 hours (terminal) after dosing. […] Colon drug levels were measured 4 hours after dosing. […] Colonic exposure of compound of Formula I increased in a dose-dependent fashion. At 25 mg/kg dose, colonic exposure of compound of Formula I was 30814.5±5552.5 ng/g and 18256.5±4118.8 ng/g tissue. […] Oral dosing of compound of Formula I in mice resulted, as shown in other studies, in minimum systemic exposure and lack of consistent dose-dependent pharmacodynamic responses in the blood.
Percent inhibition of colonic pSTAT-3 was determined using log transformed data following outlier removal.

[5] = Serum and colonic concentrations in IL-12/IL-18 studies S-1 and S-2; assay type: in vivo, C57BL/6 mice; conditions: mice, mean±SEM; for concentration at 4 h / concentration at 30 min: C57BL/6, mouse, po; for concentration at 30 min: read-out: Serum 30 min post dosing
Procedure: as §2
Data are presented as mean±SEM; N=3-7/group. BLOQ, below limit of quantification; min, minutes; h, hour(s).
Data are presented as mean±SEM; N=3 to 7/group. BLOQ, below limit of quantification; min, minutes; h, hour(s).

T2 sequence (P23458 whole entry): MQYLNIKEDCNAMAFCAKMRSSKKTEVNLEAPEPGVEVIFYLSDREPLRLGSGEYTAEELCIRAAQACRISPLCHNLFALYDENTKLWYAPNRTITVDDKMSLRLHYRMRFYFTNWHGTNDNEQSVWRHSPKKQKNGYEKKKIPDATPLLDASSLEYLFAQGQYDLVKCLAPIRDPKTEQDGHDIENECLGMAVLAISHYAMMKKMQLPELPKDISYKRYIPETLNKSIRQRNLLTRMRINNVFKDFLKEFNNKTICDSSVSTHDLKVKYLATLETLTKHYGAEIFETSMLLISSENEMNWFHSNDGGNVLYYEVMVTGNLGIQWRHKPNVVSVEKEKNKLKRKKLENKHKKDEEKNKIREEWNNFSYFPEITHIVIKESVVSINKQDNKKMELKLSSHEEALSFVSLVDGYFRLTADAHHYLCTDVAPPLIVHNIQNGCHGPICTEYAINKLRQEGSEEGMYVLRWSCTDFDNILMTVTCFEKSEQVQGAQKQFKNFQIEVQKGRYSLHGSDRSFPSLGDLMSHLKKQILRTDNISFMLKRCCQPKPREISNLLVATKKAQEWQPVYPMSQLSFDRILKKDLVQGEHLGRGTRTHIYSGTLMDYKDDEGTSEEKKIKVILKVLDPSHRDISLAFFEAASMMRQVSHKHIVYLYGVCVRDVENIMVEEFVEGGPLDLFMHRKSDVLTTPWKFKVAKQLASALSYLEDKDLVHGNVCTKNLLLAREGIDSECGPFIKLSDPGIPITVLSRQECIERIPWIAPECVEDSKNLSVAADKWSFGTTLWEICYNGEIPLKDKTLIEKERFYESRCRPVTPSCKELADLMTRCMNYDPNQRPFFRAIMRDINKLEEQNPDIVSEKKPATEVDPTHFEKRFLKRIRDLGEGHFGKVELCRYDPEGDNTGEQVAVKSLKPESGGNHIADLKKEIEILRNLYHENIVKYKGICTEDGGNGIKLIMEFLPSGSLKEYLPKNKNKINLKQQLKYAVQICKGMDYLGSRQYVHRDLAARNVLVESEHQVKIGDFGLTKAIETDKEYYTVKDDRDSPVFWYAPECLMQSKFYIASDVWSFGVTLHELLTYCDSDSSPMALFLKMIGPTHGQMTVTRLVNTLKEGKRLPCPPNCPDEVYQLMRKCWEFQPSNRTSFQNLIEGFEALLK
T2 sequence (P52333 whole entry): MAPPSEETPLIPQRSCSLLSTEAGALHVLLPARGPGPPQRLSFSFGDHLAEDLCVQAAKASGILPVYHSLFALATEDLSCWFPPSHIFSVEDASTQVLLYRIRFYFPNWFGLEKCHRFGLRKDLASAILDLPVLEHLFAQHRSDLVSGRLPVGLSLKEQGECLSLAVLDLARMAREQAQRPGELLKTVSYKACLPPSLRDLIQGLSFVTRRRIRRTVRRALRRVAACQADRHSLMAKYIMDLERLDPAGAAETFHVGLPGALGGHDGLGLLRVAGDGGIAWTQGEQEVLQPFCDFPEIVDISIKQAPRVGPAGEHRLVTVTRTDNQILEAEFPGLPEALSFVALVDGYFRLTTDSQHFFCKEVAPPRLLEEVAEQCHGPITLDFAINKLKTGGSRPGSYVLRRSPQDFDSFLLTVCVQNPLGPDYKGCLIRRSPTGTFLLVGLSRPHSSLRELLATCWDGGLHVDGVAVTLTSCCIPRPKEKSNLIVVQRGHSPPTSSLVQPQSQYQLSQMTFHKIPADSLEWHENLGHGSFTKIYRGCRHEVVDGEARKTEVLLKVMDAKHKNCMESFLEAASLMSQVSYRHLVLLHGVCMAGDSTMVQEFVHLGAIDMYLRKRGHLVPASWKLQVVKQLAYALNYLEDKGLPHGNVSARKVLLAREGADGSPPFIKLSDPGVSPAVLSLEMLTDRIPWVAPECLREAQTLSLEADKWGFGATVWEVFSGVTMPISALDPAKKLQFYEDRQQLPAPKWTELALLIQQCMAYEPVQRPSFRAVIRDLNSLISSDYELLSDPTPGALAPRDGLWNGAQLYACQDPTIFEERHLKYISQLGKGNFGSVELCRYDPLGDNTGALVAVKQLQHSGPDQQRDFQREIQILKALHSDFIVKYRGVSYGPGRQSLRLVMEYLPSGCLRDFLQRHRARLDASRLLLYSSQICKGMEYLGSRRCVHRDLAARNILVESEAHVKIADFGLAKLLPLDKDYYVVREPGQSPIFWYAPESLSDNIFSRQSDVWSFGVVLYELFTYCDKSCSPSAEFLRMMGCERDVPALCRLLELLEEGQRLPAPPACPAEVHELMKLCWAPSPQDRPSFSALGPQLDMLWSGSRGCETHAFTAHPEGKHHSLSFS
T2 sequence (Q9HBE5 20-538 partner): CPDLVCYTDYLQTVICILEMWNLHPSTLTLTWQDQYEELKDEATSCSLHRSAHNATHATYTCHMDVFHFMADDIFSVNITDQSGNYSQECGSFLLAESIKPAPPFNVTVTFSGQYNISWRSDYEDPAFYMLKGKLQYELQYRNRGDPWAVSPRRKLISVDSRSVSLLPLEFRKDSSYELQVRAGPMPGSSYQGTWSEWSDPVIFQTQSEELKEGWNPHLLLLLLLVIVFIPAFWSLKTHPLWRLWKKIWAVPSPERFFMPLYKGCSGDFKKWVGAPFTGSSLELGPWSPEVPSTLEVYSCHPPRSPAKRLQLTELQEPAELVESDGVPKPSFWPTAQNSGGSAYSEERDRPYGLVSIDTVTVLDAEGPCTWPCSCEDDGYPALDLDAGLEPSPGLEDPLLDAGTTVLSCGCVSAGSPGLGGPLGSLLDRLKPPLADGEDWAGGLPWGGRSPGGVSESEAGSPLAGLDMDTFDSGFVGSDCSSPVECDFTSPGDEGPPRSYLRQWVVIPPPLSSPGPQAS
T2 sequence (P31785 23-369 partner): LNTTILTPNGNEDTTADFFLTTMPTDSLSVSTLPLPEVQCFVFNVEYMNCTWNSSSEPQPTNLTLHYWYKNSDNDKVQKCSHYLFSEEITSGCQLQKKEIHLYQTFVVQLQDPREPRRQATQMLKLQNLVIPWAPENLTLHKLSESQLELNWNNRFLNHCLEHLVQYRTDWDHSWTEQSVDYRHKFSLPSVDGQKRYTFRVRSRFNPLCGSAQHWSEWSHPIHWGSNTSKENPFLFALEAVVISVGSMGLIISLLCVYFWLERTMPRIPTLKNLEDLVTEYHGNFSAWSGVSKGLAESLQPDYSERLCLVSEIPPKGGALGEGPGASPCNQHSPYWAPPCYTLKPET

`CC(C)(O)CNC(=O)Cc1nc2cnc3[nH]ccc3c2n1[C@H]1CC[C@H](CC#N)CC1` [Compound of Formula I, 2-(1-((1r,4r)-4-(Cyanomethyl)cyclohexyl)-1,6-dihydroimidazo[4,5-d]pyrrolo[2,3-b]pyridin-2-yl)-N-(2-hydroxy-2-methylpropyl)acetamide] showed an IC50 [1] of 105 nM, an IC50 [2] of 579 nM and an IC50 [3] of 415 nM. It also gave an inhibition at 10 mg/kg ([4]; Study S-1, oral 10 mg/kg) of 3.9%, an inhibition at 25 mg/kg ([4]; Study S-1, oral 25 mg/kg) of 25.8% and an inhibition at 50 mg/kg ([4]; Study S-1, oral 50 mg/kg) of 49.7%. The inhibition at 10 mg/kg ([4]; Study S-2, oral 10 mg/kg) was 33.1%, the inhibition at 25 mg/kg ([4]; Study S-2, oral 25 mg/kg) was 61.2% and the inhibition at 50 mg/kg ([4]; Study S-2, oral 50 mg/kg) was 66.1%. The concentration at 4 h ([5]; colon, 10 mg/kg, S-1, oral 10 mg/kg, read-out: Colon 4 h post dosing) was 6600 ± 787 ng/g, the concentration at 4 h ([5]; colon, 10 mg/kg, S-2, oral 10 mg/kg, read-out: Colon 4 h post dosing) was 10100 ± 1300 ng/g and the concentration at 4 h ([5]; colon, 25 mg/kg, S-1, oral 25 mg/kg, read-out: Colon 4 h post dosing) was 30800 ± 5550 ng/g. The concentration at 4 h ([5]; colon, 25 mg/kg, S-2, oral 25 mg/kg, read-out: Colon 4 h post dosing) was 18300 ± 4120 ng/g, the concentration at 4 h ([5]; colon, 50 mg/kg, S-1, oral 50 mg/kg, read-out: Colon 4 h post dosing) was 59600 ± 11300 ng/g and the concentration at 4 h ([5]; colon, 50 mg/kg, S-2, oral 50 mg/kg, read-out: Colon 4 h post dosing) was 35600 ± 5560 ng/g. The concentration at 30 min ([5]; serum, 10 mg/kg, S-1, oral 10 mg/kg) was 7.4 ± 1.4 nM, the concentration at 30 min ([5]; serum, 10 mg/kg, S-2, oral 10 mg/kg) was 7 ± 0.7 nM and the concentration at 30 min ([5]; serum, 25 mg/kg, S-1, oral 25 mg/kg) was 21.8 ± 5.5 nM. The concentration at 4 h ([5]; serum, 25 mg/kg, S-1, oral 25 mg/kg, read-out: Serum 4 h post dosing) was 25 ± 20.3 nM, the concentration at 30 min ([5]; serum, 25 mg/kg, S-2, oral 25 mg/kg) was 70.5 ± 60.4 nM and the concentration at 4 h ([5]; serum, 25 mg/kg, S-2, oral 25 mg/kg, read-out: Serum 4 h post dosing) was 45.1 ± 24 nM. It also gave a concentration at 30 min ([5]; serum, 50 mg/kg, S-1, oral 50 mg/kg) of 122 ± 87.2 nM, a concentration at 4 h ([5]; serum, 50 mg/kg, S-1, oral 50 mg/kg, read-out: Serum 4 h post dosing) of 19.7 ± 8 nM and a concentration at 30 min ([5]; serum, 50 mg/kg, S-2, oral 50 mg/kg) of 38.8 ± 7.4 nM. For the same compound, the concentration at 4 h ([5]; serum, 50 mg/kg, S-2, oral 50 mg/kg, read-out: Serum 4 h post dosing) was 131 ± 108 nM, the “Serum 4 h post dosing” value ([5]; S-1, oral 10 mg/kg) was “BLOQ” and the “Serum 30 min post dosing” value ([5]; S-1, oral 10 mg/kg, 10 mg/kg) was 7.4 ± 1.4 nM. The “Colon 4 h post dosing” value ([5]; S-1, oral 25 mg/kg, 25 mg/kg) was 30814.5 ± 5552.5 ng/g, the “Serum 30 min post dosing” value ([5]; S-1, oral 25 mg/kg, 25 mg/kg) was 21.8 ± 5.5 nM and the “Serum 30 min post dosing” value ([5]; S-1, oral 50 mg/kg, 50 mg/kg) was 121.7 ± 87.2 nM. The “Serum 4 h post dosing” value ([5]; S-2, oral 10 mg/kg) was “BLOQ”, the “Serum 30 min post dosing” value ([5]; S-2, oral 10 mg/kg, 10 mg/kg) was 7.0 ± 0.7 nM and the “Colon 4 h post dosing” value ([5]; S-2, oral 25 mg/kg, 25 mg/kg) was 18256.5 ± 4118.8 ng/g. For the same compound, the “Serum 30 min post dosing” value ([5]; S-2, oral 25 mg/kg, 25 mg/kg) was 70.5 ± 60.4 nM and the “Serum 30 min post dosing” value ([5]; S-2, oral 50 mg/kg, 50 mg/kg) was 38.8 ± 7.4 nM.
